In patent publication US10160747B2, “Compounds and methods for kinase modulation, and indications therefor” (Plexxikon Inc., priority 2016, dated 2018):

What was measured:
[1] = test system: MOLM-14 D835Y (endogenous FLT3 ITD and transfected FLT3 D835Y); experiment: MOLM-14 D835Y cell proliferation assay (CellTiter-Glo); format: cell-based; settings: Homo sapiens, MOLM-14, 72 h; 3 d growth, GMean
Summary of the method: (§1)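 MOLM-14 derivatives carrying D835Y or F691L, selected under escalating AC220, were seeded at 1×10^4 cells/well and exposed to an 8-point 1:3 compound series (1 to 0.00046 μM, 0.2% DMSO final) for three days at 37° C., 5% CO2. CellTiter-Glo luminescence (ATP content) versus concentration gave IC50.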

[2] = test system: MOLM-14 F691L (endogenous FLT3 ITD and transfected FLT3 F691L); experiment: MOLM-14 F691L cell proliferation assay (CellTiter-Glo); format: cell-based; settings: Homo sapiens, MOLM-14, 72 h; 3 d growth, GMean
Summary of the method: as §1

c-KIT = biological target: T1, c-KIT (Homo sapiens, UniProt P10721); experiment: c-KIT recombinant enzyme kinase assay (AlphaScreen); format: biochemical; settings: 100 ATP, 8 pt
T1 construct: purchased Millipore 14-559K
T1 sequence (P10721 26-976): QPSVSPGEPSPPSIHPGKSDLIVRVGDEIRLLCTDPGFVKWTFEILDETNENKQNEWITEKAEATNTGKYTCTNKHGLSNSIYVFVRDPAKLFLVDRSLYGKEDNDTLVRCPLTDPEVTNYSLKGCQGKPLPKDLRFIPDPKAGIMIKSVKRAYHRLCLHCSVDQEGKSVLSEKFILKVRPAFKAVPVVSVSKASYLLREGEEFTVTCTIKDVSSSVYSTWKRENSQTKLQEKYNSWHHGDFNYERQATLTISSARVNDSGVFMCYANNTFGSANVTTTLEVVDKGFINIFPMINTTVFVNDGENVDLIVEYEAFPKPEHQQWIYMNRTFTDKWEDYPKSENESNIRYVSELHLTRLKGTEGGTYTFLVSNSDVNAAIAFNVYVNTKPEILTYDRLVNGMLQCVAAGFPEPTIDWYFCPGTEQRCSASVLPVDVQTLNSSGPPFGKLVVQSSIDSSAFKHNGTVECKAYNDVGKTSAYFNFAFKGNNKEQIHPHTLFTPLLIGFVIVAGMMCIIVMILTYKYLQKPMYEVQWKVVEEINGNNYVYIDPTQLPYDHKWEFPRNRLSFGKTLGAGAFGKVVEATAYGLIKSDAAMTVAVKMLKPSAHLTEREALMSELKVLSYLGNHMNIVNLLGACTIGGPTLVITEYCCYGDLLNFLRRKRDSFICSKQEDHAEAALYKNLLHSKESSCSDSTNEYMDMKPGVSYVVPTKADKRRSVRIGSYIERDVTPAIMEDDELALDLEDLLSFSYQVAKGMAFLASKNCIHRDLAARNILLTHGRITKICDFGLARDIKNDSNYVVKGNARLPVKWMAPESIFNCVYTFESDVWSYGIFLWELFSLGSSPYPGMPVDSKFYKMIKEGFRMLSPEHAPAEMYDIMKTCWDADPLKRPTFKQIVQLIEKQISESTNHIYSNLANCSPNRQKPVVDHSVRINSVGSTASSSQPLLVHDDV
Summary of the method: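 Recombinant enzyme phosphorylated biotinylated poly(Glu4-Tyr) peptide (30 nM final) with ATP at 10 μM for FLT3-ITD and FLT3-D835Y or 100 μM for c-KIT. Phosphopeptide was detected by AlphaScreen with streptavidin donor and anti-phosphotyrosine (PY20) acceptor beads (10 μg/mL), read at 580 nm, for IC50 determination.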

Measured: IC50

Cc1ncc(NC(=O)Cc2ccc(-c3cnc4[nH]c(Cl)cc4c3)cc2F)cc1C(F)(F)F [Compound P-0067, 2-[4-(2-chloro-1H-pyrrolo[2,3-b]pyridin-5-yl)-2-fluoro-phenyl]-N-[6-methyl-5-(trifluoromethyl)-3-pyridyl]acetamide]
0.0001 to 10 µM: all assays above

Cn1cc(Nc2ncc(-c3ccc(CC(=O)NCc4ccccn4)c(F)c3)cn2)cn1 [Compound P-0088, 2-[2-fluoro-4-[2-[(1-methylpyrazol-4-yl)amino]pyrimidin-5-yl]phenyl]-N-(2-pyridylmethyl)acetamide]
0.0001 to 10 µM: all assays above

O=C(Cc1ccc(-c2cnc(Nc3cnn4ccccc34)nc2)c(F)c1)Nc1cncc(C(F)(F)F)c1 [Compound P-0071, 2-[3-fluoro-4-[2-(pyrazolo[1,5-a]pyridin-3-ylamino)pyrimidin-5-yl]phenyl]-N-[5-(trifluoromethyl)-3-pyridyl]acetamide]
0.0001 to 10 µM: all assays above
